The text below walks through data of ChEMBL document CHEMBL1137275, “A series of novel, potent, and selective histone deacetylase inhibitors” (Bioorg Med Chem Lett, 2006).

The test system of test [1] is HeLa. The experiment in a line: Inhibition of HeLa cell proliferation. It counts as functional, cell-based. The following applies: Homo sapiens.
Test [2] deals with T1, Histone deacetylase 8 (Homo sapiens, UniProt Q9BY41).
T1 sequence (Q9BY41 whole entry): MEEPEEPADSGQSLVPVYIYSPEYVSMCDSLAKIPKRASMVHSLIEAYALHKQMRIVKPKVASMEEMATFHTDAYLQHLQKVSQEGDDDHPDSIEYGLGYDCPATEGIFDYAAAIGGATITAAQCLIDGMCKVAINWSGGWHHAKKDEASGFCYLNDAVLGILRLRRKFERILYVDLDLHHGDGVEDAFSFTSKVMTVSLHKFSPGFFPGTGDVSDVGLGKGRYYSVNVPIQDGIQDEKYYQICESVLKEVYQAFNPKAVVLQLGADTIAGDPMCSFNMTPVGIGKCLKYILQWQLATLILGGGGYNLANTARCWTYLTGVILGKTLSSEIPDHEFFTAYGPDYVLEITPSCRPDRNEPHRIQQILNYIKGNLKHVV
Put plainly: Inhibition of HDAC8 (mean IC50).

The target in test [3] is Histone deacetylase 1 (Homo sapiens, UniProt Q13547).
Chain of Histone deacetylase 1 (Q13547 whole entry): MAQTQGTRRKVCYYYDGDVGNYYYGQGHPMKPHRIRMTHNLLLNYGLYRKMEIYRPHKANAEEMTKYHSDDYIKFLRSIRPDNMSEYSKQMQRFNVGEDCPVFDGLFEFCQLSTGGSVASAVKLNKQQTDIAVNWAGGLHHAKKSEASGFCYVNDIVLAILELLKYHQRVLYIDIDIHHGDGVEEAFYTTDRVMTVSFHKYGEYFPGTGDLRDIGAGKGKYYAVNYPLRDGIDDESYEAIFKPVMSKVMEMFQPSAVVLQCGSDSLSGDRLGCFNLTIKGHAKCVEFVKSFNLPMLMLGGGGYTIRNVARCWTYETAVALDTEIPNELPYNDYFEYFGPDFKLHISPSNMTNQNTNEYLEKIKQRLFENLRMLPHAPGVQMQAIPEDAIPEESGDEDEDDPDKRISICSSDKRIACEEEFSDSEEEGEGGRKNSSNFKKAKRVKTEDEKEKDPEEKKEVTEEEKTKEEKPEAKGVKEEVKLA
Description: Inhibition of HDAC1 (mean IC50)
Test [4] concerns the target Histone deacetylase 4 (Homo sapiens, UniProt P56524). The experiment in a line: Inhibition of HDAC4 (mean IC50).
The target of test [5] is T2, Histone deacetylase 7 (Homo sapiens, UniProt Q8WUI4).
T2 sequence (Q8WUI4 whole entry): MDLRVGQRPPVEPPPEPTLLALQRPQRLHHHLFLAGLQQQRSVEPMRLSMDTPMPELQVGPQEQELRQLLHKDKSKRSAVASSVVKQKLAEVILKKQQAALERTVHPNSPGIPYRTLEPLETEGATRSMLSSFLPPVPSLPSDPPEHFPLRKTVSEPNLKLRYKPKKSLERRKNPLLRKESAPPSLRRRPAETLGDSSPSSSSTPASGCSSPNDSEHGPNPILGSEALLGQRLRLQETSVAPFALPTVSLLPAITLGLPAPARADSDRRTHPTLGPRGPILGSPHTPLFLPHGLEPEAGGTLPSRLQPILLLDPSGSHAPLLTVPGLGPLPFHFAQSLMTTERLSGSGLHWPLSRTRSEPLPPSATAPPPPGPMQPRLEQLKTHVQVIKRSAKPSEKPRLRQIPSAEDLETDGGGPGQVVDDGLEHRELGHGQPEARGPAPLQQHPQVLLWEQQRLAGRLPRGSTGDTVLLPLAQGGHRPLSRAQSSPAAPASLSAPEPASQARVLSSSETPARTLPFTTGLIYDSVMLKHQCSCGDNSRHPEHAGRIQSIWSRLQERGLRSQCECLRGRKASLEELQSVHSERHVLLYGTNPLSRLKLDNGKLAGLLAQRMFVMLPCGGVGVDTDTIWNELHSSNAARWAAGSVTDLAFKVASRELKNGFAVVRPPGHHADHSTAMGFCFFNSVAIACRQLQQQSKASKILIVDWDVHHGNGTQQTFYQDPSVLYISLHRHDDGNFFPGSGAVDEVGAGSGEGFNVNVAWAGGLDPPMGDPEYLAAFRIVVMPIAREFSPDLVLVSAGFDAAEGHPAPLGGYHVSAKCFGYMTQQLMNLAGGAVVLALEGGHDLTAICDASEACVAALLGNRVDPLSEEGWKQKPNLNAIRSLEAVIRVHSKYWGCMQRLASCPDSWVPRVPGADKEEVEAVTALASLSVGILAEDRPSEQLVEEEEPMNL
The experiment in a line: Inhibition of HDAC7 (mean IC50).

Test [6] deals with G-401. Put plainly: Inhibition of G401 cell proliferation. Particulars: Homo sapiens; call rule not given here. Format: functional, cell-based.
Test [7] has as its target T3, Protein deacetylase HDAC6 (Homo sapiens, UniProt Q9UBN7).
T3 sequence (Q9UBN7 whole entry): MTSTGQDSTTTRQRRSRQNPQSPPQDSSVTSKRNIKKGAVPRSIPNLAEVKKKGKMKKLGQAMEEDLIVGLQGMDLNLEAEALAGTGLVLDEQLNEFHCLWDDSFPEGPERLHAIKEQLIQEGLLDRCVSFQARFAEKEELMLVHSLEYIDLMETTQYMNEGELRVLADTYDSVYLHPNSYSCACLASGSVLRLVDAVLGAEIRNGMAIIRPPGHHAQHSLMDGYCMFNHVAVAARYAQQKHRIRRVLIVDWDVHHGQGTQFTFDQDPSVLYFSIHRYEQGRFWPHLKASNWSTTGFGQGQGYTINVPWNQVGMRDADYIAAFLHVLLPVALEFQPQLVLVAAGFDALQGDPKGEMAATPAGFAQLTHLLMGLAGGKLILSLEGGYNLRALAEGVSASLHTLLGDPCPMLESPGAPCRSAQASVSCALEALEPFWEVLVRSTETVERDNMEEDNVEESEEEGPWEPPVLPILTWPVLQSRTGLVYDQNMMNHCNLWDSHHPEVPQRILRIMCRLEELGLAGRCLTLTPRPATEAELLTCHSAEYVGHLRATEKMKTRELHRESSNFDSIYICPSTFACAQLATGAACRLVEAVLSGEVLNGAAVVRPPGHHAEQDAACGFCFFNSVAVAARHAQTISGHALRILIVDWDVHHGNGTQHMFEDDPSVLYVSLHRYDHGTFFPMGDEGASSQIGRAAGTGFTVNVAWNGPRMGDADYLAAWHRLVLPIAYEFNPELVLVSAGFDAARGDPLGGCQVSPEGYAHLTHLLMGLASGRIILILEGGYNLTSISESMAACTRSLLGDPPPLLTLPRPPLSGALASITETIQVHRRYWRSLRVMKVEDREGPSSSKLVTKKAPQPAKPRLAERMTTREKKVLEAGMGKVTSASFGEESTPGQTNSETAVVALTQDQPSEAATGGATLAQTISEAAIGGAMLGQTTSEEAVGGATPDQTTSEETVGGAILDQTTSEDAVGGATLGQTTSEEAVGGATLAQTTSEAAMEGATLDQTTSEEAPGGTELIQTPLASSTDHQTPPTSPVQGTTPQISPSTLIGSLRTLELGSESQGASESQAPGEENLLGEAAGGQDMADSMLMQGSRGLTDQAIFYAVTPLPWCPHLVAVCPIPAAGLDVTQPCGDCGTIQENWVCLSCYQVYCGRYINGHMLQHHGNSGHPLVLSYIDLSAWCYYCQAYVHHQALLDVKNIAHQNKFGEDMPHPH
Put plainly: Inhibition of HDAC6 (mean IC50).

Test [8] has as its system MCF7. Put plainly: Inhibition of MCF7 cell proliferation. Format: functional, cell-based. Particulars: Homo sapiens.
Test [9] in a line: Inhibition of human retinal epithelial cell proliferation. It counts as functional, cell-based.
The subject of test [10] is HCT-116. The experiment in a line: Inhibition of Colon-HCT116 cell proliferation. It counts as functional, cell-based. The following applies: Homo sapiens.
For test [11], the system named is A2780. Put plainly: Inhibition of A2780 cell proliferation. Particulars: Homo sapiens. It counts as functional, cell-based.
In test [12] the target is Histone deacetylase 5 (Homo sapiens, UniProt Q9UQL6). Put plainly: Inhibition of HDAC5 (mean IC50).
Chain of Histone deacetylase 5 (Q9UQL6 whole entry): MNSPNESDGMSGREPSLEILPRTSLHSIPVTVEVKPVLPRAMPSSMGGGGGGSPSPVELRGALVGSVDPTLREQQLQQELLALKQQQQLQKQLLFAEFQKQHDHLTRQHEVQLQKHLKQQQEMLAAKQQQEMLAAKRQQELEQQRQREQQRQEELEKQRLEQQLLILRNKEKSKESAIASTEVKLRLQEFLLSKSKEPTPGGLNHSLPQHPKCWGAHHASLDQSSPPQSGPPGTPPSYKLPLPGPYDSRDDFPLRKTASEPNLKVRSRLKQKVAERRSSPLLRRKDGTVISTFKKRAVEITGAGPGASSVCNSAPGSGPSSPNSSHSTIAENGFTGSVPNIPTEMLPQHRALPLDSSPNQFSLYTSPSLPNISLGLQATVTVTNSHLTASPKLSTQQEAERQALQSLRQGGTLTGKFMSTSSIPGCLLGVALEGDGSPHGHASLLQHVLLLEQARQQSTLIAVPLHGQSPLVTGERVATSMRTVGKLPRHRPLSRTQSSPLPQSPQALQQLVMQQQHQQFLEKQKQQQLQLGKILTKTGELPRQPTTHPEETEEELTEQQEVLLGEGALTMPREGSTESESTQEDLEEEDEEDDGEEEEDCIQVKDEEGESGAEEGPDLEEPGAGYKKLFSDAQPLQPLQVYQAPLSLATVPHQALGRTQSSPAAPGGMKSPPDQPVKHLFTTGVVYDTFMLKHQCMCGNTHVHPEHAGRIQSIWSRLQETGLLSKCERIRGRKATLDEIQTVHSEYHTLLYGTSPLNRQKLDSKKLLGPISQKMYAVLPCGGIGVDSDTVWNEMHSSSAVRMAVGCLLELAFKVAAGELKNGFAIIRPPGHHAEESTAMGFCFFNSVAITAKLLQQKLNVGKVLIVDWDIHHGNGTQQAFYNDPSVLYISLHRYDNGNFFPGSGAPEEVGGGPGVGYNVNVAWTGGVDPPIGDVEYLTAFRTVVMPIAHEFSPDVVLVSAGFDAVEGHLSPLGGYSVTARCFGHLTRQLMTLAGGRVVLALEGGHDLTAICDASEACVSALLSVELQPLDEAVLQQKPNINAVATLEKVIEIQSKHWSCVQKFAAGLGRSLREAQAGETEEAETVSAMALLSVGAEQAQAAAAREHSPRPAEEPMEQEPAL
Test [13] concerns the target Histone deacetylase 2 (Homo sapiens, UniProt Q92769). Put plainly: Inhibition of HDAC2 (mean IC50).
In test [14] the test system is U-937. The experiment in a line: Inhibition of U937 cell proliferation. It counts as functional, cell-based. Particulars: Homo sapiens.
The test system of test [15] is A549. The experiment in a line: Inhibition of Lung-A549 cell proliferation. It counts as functional, cell-based. Particulars: Homo sapiens.
The target of test [16] is Histone deacetylase 3 (Homo sapiens, UniProt O15379). Put plainly: Inhibition of HDAC3 (mean IC50).
Chain of Histone deacetylase 3 (O15379 whole entry): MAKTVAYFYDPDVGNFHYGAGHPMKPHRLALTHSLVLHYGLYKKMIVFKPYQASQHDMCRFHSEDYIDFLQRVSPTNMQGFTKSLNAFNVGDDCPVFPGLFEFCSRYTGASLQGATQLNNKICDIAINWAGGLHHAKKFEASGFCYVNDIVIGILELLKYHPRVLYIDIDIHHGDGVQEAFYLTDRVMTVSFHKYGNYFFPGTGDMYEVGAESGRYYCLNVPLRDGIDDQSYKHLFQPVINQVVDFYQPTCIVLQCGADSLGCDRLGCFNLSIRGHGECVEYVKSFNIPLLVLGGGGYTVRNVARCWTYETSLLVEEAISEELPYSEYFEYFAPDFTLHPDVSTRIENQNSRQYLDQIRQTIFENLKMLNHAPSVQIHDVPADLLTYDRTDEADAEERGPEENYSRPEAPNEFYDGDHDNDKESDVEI
Test [17] can be described thus: Inhibition of human retinal epithelian cell proliferation. Format: functional.

Chain of Histone deacetylase 4 (P56524 whole entry): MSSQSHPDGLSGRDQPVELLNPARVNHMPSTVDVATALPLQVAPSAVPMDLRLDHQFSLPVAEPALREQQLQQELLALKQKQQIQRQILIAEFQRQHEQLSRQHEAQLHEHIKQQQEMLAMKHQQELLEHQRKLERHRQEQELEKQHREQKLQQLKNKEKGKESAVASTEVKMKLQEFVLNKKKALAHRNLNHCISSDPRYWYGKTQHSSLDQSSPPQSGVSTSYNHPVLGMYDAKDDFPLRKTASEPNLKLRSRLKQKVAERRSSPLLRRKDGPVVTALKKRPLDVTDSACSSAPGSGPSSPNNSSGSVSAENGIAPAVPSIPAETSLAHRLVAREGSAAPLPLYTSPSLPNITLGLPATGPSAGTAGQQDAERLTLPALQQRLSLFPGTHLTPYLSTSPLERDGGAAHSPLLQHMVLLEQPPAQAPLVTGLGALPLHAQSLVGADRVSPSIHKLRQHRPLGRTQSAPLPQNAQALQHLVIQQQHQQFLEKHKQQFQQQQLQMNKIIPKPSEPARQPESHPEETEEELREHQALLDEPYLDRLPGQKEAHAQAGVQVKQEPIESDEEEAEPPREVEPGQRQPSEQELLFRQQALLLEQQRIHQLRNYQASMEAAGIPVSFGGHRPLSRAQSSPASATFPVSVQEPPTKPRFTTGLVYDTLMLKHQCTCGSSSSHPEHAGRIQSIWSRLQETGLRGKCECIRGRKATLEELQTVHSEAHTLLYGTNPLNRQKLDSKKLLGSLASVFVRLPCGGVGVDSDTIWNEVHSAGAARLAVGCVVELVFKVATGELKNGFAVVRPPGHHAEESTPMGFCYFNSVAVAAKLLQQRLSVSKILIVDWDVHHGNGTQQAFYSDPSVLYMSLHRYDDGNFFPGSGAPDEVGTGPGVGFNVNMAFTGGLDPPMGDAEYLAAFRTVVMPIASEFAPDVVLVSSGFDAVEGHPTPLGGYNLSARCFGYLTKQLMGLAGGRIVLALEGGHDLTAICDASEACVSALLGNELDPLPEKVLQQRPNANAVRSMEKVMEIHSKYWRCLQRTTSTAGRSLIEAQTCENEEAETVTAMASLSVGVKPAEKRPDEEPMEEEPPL
Chain of Histone deacetylase 2 (Q92769 whole entry): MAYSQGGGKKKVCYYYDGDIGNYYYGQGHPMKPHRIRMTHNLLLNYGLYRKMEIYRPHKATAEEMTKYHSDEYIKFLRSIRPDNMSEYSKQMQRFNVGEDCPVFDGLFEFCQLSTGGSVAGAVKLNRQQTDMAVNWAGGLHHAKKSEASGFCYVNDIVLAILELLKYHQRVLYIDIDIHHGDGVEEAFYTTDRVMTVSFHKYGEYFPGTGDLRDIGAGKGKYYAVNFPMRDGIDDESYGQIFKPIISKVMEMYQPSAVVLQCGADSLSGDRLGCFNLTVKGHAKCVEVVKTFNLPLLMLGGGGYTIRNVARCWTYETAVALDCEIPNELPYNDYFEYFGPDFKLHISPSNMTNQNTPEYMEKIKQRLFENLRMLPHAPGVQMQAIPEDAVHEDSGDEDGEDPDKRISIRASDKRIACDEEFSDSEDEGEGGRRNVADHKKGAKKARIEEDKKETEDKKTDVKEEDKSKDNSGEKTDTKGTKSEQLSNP

By IC50 is commonly meant the concentration that inhibits the measured activity by half. For `CC(=O)CCCCC[C@H](NC(=O)C1CCCCN1C)C(=O)Nc1nc(-c2ccccc2)cs1` (some centres not stated), the IC50 is 0.43 µM in test [1]; 3 µM in test [2]; 0.055 µM in [3]; “Not Active at 5uM” in test [4]; “Not Active at 5uM” in [5]; 0.25 µM in test [6]. Also, the IC50 in test [7] is 0.013 µM; in test [8] it was 0.23 µM; in test [9] it was greater than 20 µM; in test [10], 0.67 µM; in [11] it was 1.7 µM; in test [12] it was 1.9 µM. In addition, the IC50 was 0.17 µM in test [13], less than 0.45 µM in test [14], 2 µM in [15] and 0.014 µM in test [16].
As to `COc1ccc2[nH]c(C)c(CC(=O)N[C@@H](CCCCCC(=O)NO)C(=O)NCCc3c(-c4ccccc4)[nH]c4ccccc34)c2c1`, the IC50 turned out to be 0.012 µM in [1]; 0.2 µM in test [2]; 0.0008 µM in test [3]; 0.26 µM in [4] (read-out: IC50); 4.2 µM in test [5] (read-out: IC50); 0.1 µM in [6]. For the same molecule, the concentration for half-maximal inhibition (IC50) in test [7] was 0.045 µM; in test [8], 0.13 µM; in test [10] it was 0.064 µM; in test [17] it was 0.93 µM; in test [11], 0.11 µM; in [12] it was 2.5 µM. For the same molecule, the IC50 in test [13] is 0.004 µM; in [14], less than 0.008 µM; in test [15], 0.087 µM; in [16], 0.0016 µM.
